Results as given in US11207338B2, “Composition for preventing and treating osteoporosis, comprising dihydrophaseic acid 3′-O-β-D-glucopyranoside isolated from lycium root bark extracts” (DONG WOO DANG CO., LTD, priority 2015, dated 2021).

Legend:
[1] = test system: monocytes isolated from mouse bone marrow; assay: Osteoclast differentiation (TRAP activity and TRAP staining); assay type: cell-based; settings: mouse monocytes with M-CSF and RANKL; 5 μg/ml; treated vs untreated
Description: Osteoclasts was isolated from primary monocytes, which are the […] of osteoclasts from the bone marrow of a 6 week old mouse, and cultured them. After confirming that the osteoclasts isolated from mouse stem cells were monocytes isolated from the bone marrow of the mouse through FACS (FIG. 6a) (monocyte positive marker antibody: CD11b), an experiment was performed. Separated mouse monocytes were treated with 30 ng/ml M-CSF and 50 ng/ml LANKL, which are osteoclast differentiation-inducing agents, and differentiation was induced for 3 days before treatment with D3G fraction layer.
Osteoclasts are derived from stem cells and are responsible for bone resorption that destroys aged bone wherein bone remodeling is maintained through the balanced action of osteogenesis by osteoblasts and bone resorption by osteoclasts. To the monocytes extracted and cultured from the stem cells of the femoral region of the mouse, 30 ng/mL M-CSF and 50 ng/mL RANKL were added together and then cultured for 5 days. Thereafter, the activity of TRAP which is an osteoclast differentiation marker was measured.
After washing the cells with physiological saline, TRAP activity was measured by absorbance at a wavelength of 405 nm using an Acid-Phosphatase Kit, and after staining, the osteoclasts were observed through a microscope.

[2] = test system: mixed culture of MC3T3-E1 pre-osteoblasts and mouse monocytes; assay: Mixed culture of osteoblast and osteoclast (ALP and TRAP activity); assay type: cell-based; settings: MC3T3-E1 plus monocytes mixed culture; 5 μg/mL
Description: In order to assess the maintenance of bone remodeling under the condition closer to the in vivo condition through the balanced action between osteogenesis and bone resorption by osteoblasts and osteoclasts, MC3T3-E1(2×10^4 cells/well), which are pre-osteoblasts, and monocytes (4×10^4 cells/well) obtained by extracting stem cells from the femoral region of the mouse and culturing them were mixed and cultured.
To the mixed culture of osteoblasts and osteoclasts, ascorbic acid (50 μg/ml) and β-glycerophosphate (10 mM) which are osteoblast differentiation-inducing agents were added to induce differentiation for 3 days and then treated with D3G fraction layer. After adding the D3G fraction layer (5 μg/mL) to the mixed culture solution, the activity of ALP which is an osteoblast differentiation marker and the activity of TRAP which is an osteoclast differentiation marker were measured. Statistical analysis was performed by student's t-test and expressed as *p<0.05 and **p<0.01 depending on significance level.

C3H10T1/2 cells [3] = assay: Analysis of ALP activity; assay type: cell-based, mouse
Description: (§1) C3H10T1/2 cells which are mouse mesenchymal stem cells and MC3T3-E1 cells which are pre-osteoblasts were cultured in Basal Medium Eagle (BME) medium supplemented with 10% fetal bovine serum, 1 mM sodium pyruvate, 100 units/L penicillin and 100 mg/L streptomycin and α-minimal essential medium (α-MEM) at 37° C. under 5% CO2.
(§2) The D3G fraction layer obtained in Examples 1 and 2 was dissolved in sterilized distilled water and divided into three groups of concentrations of 1 μg/ml, 5 μg/ml and 10 μg/ml, and then added them to C3H10T1/2 cells and MC3T3-E1 cells respectively and further cultured for 48 hours. Cells cultured in the absence of the D3G fraction layer were used as a control.
(§3) After culturing the D3G-treated experimental group treated with the three kinds of concentrations (1 μg/ml, 5 μg/ml, 10 μg/ml) and the control group for 48 hours, ALP activity of cells was measured. ALP activity was measured using a ALP Assay Kit.
Specifically, after washing the cells with the physiological saline, the cell lysed with cytolytic agent was treated with p-nitrophenyl phosphate which is a substrate of ALP and then cultured at 37° C. for 1 hour. Thereafter, 0.5N NaOH which is a reaction stop solution was added, and then the absorbance was measured at a wavelength of 405 nm. […]

MC3T3-E1 cells [4] = assay: Expression level of osteoblast differentiation gene markers (real-time PCR); assay type: cell-based; settings: differentiation-induced MC3T3-E1 cells; 5 μg/ml; relative to Gapdh
Description: (§4) In the case of MC3T3-E1 cells, ascorbic acid (50 μg/ml) and β-Glycerophosphate (10 mM), which are the osteoblast differentiation-inducing agents, were added, and then differentiation was induced for 3 days before treatment with the D3G fraction layer.
The change in the expression levels of mRNAs of osteoblast differentiation gene markers, Alp, Runx2, and Bglap (Osteocalcine) among bone remodeling-related gene markers was confirmed by a quantitative reverse transcription-PCR.
After harvesting the cells, total RNA was isolated using Trizol, and in order to remove genomic DNA, DNase I was reacted at room temperature for 15 minutes and then treated with EDTA to inactivate DNase I.
Thereafter, the reverse transcription reaction was induced by using oligo dT primer as a primer to synthesize cDNA, and then real-time PCR was performed using sequence specific primers of each gene and SYBR Green. The analysis of the expression level was performed by using the relative quantification method for the target gene using the Gapdh gene as a control. The gene-specific primer sequence information for identifying the level of expression of the gene markers used to determine the degree of differentiation of osteoblasts and osteoclasts is shown in Table 1 below.
Expression levels of the three gene markers, Alp, Runx2, and Bglap related to bone remodeling for the D3G in differentiation-induced MC3T3-E1 cells were compared by the method as described above, and the results are shown in FIGS. 7a, 7b, and 7c. Statistical analysis was performed by student's t-test and expressed as *p<0.05 depending on significance level.

MC3T3-E1 cells [5] = assay: Analysis of mineralization action (alizarin red S staining); assay type: cell-based; settings: 5 μg/mL, 3 weeks, vs control
Description: as §4
The analysis of mineralization action of the cells was performed after incubation of the experimental group treated with 5 μg/ml of the D3G and the control group for 3 weeks. The analysis of mineralization action was performed using the Alizarlin red S staining method.

C3H10T1/2 cells [6] = assay: Cell proliferation assay (EZ-Cytox, water-soluble tetrazolium salt); assay type: cell-based, mouse; settings: 5 μg/mL compared with 1 and 10 μg/ml
Description: as §1, §2
Cell proliferation assays were performed using a EZ-Cytox Enhanced Cell Viability Assay Kit product with water-soluble tetrazolium salt.
Specifically, C3H10T1/2 cells and MC3T3-E1 cells (3×10^3 cells/well) were inoculated into 96-well plates and cultured in growth medium at 37° C. for 24 hours in 5% CO2, and then the Lycium root bark extracts of three concentrations (1 μg/ml, 5 μg/ml and 10 μg/ml) were added to the cells and cultured for 2 days. […]
(§5) Statistical analysis was performed by student's t-test for the control group without extract treatment and for each treatment group with extract treatment, and expressed as *p<0.05 depending on significance level.

MC3T3-E1 cells [7] = assay: as above; assay type: cell-based; settings: differentiation induced MC3T3-E1 cells; 5 μg/mL compared with 1 and 10 μg/ml
Description: as §1, §4, §2
Cell proliferation assays were performed using a EZ-Cytox Enhanced Cell Viability Assay Kit product with water-soluble tetrazolium salt. […]
as §5

MC3T3-E1 cells [8] = assay: Analysis of ALP activity; assay type: cell-based
Description: as §1
In the case of MC3T3-E1 cells, ascorbic acid (50 μg/ml) and β-Glycerophosphate (10 mM), which are the osteoblast differentiation-inducing agents, were added, and then differentiation was induced for 3 days before treatment with the D3G fraction layer. […]
as §3
Specifically, after washing the cells with the physiological saline, the cell lysed with cytolytic agent was treated with p-nitrophenyl phosphate which is a substrate of ALP and then cultured at 37° C. for 1 hour. Thereafter, 0.5N NaOH which is a reaction stop solution was added, and then the absorbance was measured at a wavelength of 405 nm.
The effect of the cell ALP activity of the Lycium root bark extract in C3H10T1/2 cells and differentiation induced MC3T3-E1 cells was analyzed by the method as described above, and the results are shown in FIG. 4. […]

**Q.** How did the “TRAP activity (osteoclast differentiation marker)” value [1] turn out when `CC(=C/C(=O)O)/C=C/[C@]1(O)[C@]2(C)CO[C@@]1(C)C[C@@H](OC1OC(CO)C(O)C(O)C1O)C2` (stereo partly drawn) [D3G, dihydrophaseic acid 3′-O-β-D-glucopyranoside] was run?
**A.** no significant change

**Q.** And the “TRAP staining of differentiated osteoclast” value [1]?
**A.** no significant change

**Q.** And the “ALP activity in mixed culture” value [2]?
**A.** increase

**Q.** What about the “TRAP activity in mixed culture” value [2] of the same compound?
**A.** increase

**Q.** And the “enhancing effect of cell ALP activity at 5 μg/mL” value (C3H10T1/2 cells [3]; 5 μg/mL compared with 1 and 10 μg/ml)?
**A.** best effect

**Q.** What about the ALP activity (C3H10T1/2 cells [3]; 1, 5 and 10 μg/ml, 48 hours, vs control) of the same compound?
**A.** increase ALP activity

**Q.** What about the “expression level of Alp mRNA” value (MC3T3-E1 cells [4]) of the same compound?
**A.** increased

**Q.** What about the “expression level of Bglap (Osteocalcin) mRNA” value (MC3T3-E1 cells [4]) of the same compound?
**A.** increased

**Q.** What about the “expression level of Runx2 mRNA” value (MC3T3-E1 cells [4]) of the same compound?
**A.** increased

**Q.** And the “mineralization (alizarin red S staining)” value (MC3T3-E1 cells [5])?
**A.** increase mineralization

**Q.** What about the “cell proliferation promoting effect at the optimal concentration” value (C3H10T1/2 cells [6]) of the same compound?
**A.** highest

**Q.** What about the “cell proliferation promoting effect at the optimal concentration” value (MC3T3-E1 cells [7]) of the same compound?
**A.** highest

**Q.** What about the “enhancing effect of cell ALP activity at 5 μg/mL” value (MC3T3-E1 cells [8]; MC3T3-E1 cells, 5 μg/mL compared with 1 and 10 μg/ml) of the same compound?
**A.** best effect

**Q.** What about the ALP activity (MC3T3-E1 cells [8]; differentiation induced MC3T3-E1 cells, 1, 5 and 10 μg/ml, 48 hours, vs control) of the same compound?
**A.** increase ALP activity
